Like-named read-outs stand apart in the source and are kept apart here.
Tests used:
CYP2D6 [1] = tested on: CYP2D6; design: method as in earlier work; conditions: ME-luciferin-EGE as CYP2D6 substrate; cited from earlier work
CYP2D6 [2] = molecular target: T1, CYP2D6 (Homo sapiens, UniProt P10635); conditions: recombinant enzyme
Description: (§1) Their CYP2D6 inhibitory potential was determined at a concentration of 100 µM in a final reaction volume of 50 µl. […] All compounds were dissolved in DMSO and the concentration thereof in the final reaction volume was 1%, according to the limitations indicated in the manufacturer’s protocol. […] To take into account the background luminescence, which may derive from a non-enzymatic conversion of ME-luciferin-EGE to luciferin, we included a ‘minus P450’ control that contained no CYP2D6 enzyme. In order to quantify CYP2D6 activity, we subtracted background values prior to calculating the percentage of total luminescence (% TL) obtained from the solvent control (set to 100%). Low % TL indicates low CYP2D6 activity.
(§2) In the three minus P450 control wells, 12.25 µl of the 4× reaction mixture was added. […] The plate was incubated for 10 minutes. The CYP2D6 enzyme reaction was initiated by the addition of 25 µl of 2× NADPH regeneration system (2.6 mM NADP^+, 6.6 mM glucose-6-phosphate, 6.6 mM MgCl2 and 0.8 U/ml glucose-6-phosphate dehydrogenase buffered in 0.1 mM sodium citrate at pH 5.5; Promega). After 45 minutes incubation, the enzyme reaction was stopped by the addition of 50 µl of the luciferin detection reagent, which contained also the esterase for the generation of the luminescence signal. The plate was incubated in the dark for 20 minutes in order to stabilize the signal measured by a Tecan infinite F200 PRO plate reader. […] The maximum allowed DMSO concentration in the final reaction mix was 1% according to the manufacturer’s protocol. The experiment was performed at room temperature and under prevention of excessive UV-light at minimum on two independent days (n = 2).
(§3) Concentration-dependent CYP2D6 inhibition assays were performed by preparing a 5-step dilution series of the 400 µM compound solutions. […] After this dilution step, 12.5 µl of each dilution was transferred to the assay plate. The assay was performed as described above. The DMSO concentration was kept constant for all concentrations with a maximum of 1%. The experiments were performed on three independent experimental days (n = 3).
(§4) Raw data obtained from Tecan infinite F200 PRO plate reader was processed by calculating total luminescence (% of untreated control) by applying the formula: raw data − (background luminescence) * 100/mean of negative control.

[3] = tested on: P450-Glo detection reaction (unspecific esterase and modified firefly-luciferase)
Excerpt: (§5) This detection-reagent consists of i) a detergent that stops the CYP2D6 enzyme reaction, ii) an unspecific esterase that continuously releases luciferin and iii) a modified firefly-luciferase, thus a stable luminogenic signal is generated, which can be quantified by a luminometer (Fig. 1). The detection reaction is incorporated in the P450-Glo CYP2D6 inhibition assay. However, we implemented additional controls for unspecific interactions of the test compounds with the detection reaction. For this purpose, the previously established luminescence quenching control reaction reported by Modarai et al.[9] was adapted to our requirements with modifications for the use of larger sample volumes. In addition, Modarai et al. converted ME-luciferin-EGE to luciferin in the absence of a test compound and then evaluated the inhibition of the luciferase reaction.We conducted the control step by using pure luciferin-EGE, esterase, luciferase and a test compound in the absence of CYP2D6 (Supplementary Table S4).
(§6) The quantification of the P450-Glo detection reaction was performed by subtracting the background values prior to calculating the percentage of total luminescence (% TL) based on the total luminescence obtained from the solvent control (set to 100%).
(§7) We then added 12.5 µl 4× reaction mixture (5 µl 1.5 mM luciferin-EGE stock solution, 500 µl 1 M KPO4 buffer and 745 µl luciferase free water) to the wells. Finally, 25 µl of the 2× NADPH regeneration system was added. In order to initiate the detection reaction, 50 µl of the reconstituted luciferin detection reagent containing the esterase was added to the samples, positive and solvent control wells. This step was followed by 20 minutes incubation in the dark for signal stabilization. In the wells reserved for background luminescence, luciferase-free water was added. Measurements were performed on a Tecan infinite F200 PRO plate reader on two independent days (n = 2) at minimum.
as §4
(§8) A one-way ANOVA followed by Dunnett’s multiple comparisons test was performed. […] A p-value of < 0.05 was used to indicate significance.

CYP2D6 [4] = molecular target: T1, CYP2D6; experiment: in vitro; conditions: recombinant enzyme, pH 7.4
Description: as §1, §2, §3, §4

CYP2D6 [5] = molecular target: T1, CYP2D6; experiment: P450-Glo CYP2D6 inhibition assay (bioluminescence-based; pre-screen at 100 µM and IC50 determination); conditions: for classification of CYP2D6 inhibition (actives / weak actives / inactives): ranked by IC50, inactives from pre-screen at 100 µM
Description: as §1, §2, §3, §4

firefly-luciferase = conditions: cited from earlier work
[6] = tested on: P450-Glo detection reaction (unspecific esterase and modified firefly-luciferase); experiment: P450-Glo detection reaction control (luciferin-EGE, esterase, luciferase, test compound, no CYP2D6)
Excerpt: as §5, §6, §7, §4, §8

CYP2D6 [7] = experiment: CYP2D6 inhibition of virtual hits already reported in the literature
Excerpt: the hits according to non-available CYP2D6 inhibition data, plant origin and availability. The

CYP2D6 [8] = conditions: Supplementary Table S2, supplementary reference list, cited from earlier work; for IC50: read-out: Inhibitory potency IC50
[9] = authors' classification of the literature value, Supplementary Table S2

T1 sequence (P10635 whole entry): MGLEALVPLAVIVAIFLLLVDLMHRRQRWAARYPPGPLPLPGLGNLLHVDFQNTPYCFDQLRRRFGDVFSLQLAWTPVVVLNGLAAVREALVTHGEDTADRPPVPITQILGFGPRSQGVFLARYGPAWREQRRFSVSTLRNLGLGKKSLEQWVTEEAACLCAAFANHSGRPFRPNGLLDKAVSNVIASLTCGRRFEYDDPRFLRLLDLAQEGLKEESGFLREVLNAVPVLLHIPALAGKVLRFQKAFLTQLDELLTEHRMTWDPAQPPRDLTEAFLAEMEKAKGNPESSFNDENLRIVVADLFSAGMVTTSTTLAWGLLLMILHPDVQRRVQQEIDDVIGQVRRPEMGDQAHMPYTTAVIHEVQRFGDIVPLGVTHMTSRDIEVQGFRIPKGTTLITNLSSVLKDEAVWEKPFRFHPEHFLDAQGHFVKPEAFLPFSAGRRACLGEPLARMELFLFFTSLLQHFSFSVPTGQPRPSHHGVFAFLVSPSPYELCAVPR

## COc1ccc2nc(C3=NC(C(=O)OCCO)CS3)sc2c1 (centres unmarked) [ME-luciferin-EGE, methoxy-luciferin-ethylene glycol ester]
CYP2D6 [1]
  turnover number (kcat): 0.118 s⁻¹

## CN1Cc2c(ccc3c2OCO3)[C@@H]2[C@H]1c1cc3c(cc1C[C@@H]2O)OCO3 [Compound 21, (+)-Chelidonine]
CYP2D6 [2]
  classification of CYP2D6 inhibition (actives / weak actives / inactives): actives (key: actives: those compounds were classified as active, which exhibited CYP2D6 IC50 values up to 10 µM; inactives showed less than 50 % total luminescence at a concentration of 100 µM)
CYP2D6 [2]; 100 µM
  total luminescence in CYP2D6 inhibition pre-screen: 0.45 % TL
[3]
  P450-Glo Detection Reaction MEAN (total luminescence): 98.77 % TL
CYP2D6 [4]
  inhibition at 100 µM: 99.5%
CYP2D6 [5]
  IC50: 0.0225 µM

## Oc1ccc(/C=C/c2cc(O)cc(O)c2)cc1 [Compound 24, Resveratrol, reference compound]
firefly-luciferase
  inhibition of firefly-luciferase: lower micromolar range
CYP2D6 [5]
  classification of CYP2D6 inhibition (actives / weak actives / inactives): weak actives

## COC(=O)C1=CO[C@@H](C)[C@@H]2CN3CC[C@@]4(C(=O)Nc5ccccc54)[C@@H]3C[C@H]12 [Compound 2, Isopteropodine]
CYP2D6 [4]
  inhibition at 100 µM: 56.8%
[6]; 50 µM test compound, difference to DMSO 1% control
  P450-Glo Detection Reaction MEAN Diff. (inhibition of the detection reaction): 7.57%
[6]; 50 µM test compound, no CYP2D6, DMSO control = 100
  P450-Glo Detection Reaction MEAN (total luminescence): 92.43 % TL
[6]; 50 µM, one-way ANOVA, Dunnett's test vs DMSO control
  p < 0.05 (significant inhibition of the P450-Glo detection reaction): Yes
CYP2D6 [5]
  IC50: 89.1 µM
  classification of CYP2D6 inhibition (actives / weak actives / inactives): weak actives
CYP2D6 [5]; 100 µM test compound, solvent control = 100%, low % TL = low CYP2D6 activity
  total luminescence in CYP2D6 inhibition pre-screen: 43.22 % TL

## COc1ccc(Cc2nccc3cc(OC)c(OC)cc23)cc1OC [Compound 6, Papaverine]
CYP2D6 [2]
  classification of CYP2D6 inhibition (actives / weak actives / inactives): actives (key: actives: those compounds were classified as active, which exhibited CYP2D6 IC50 values up to 10 µM; inactives showed less than 50 % total luminescence at a concentration of 100 µM)
[3]
  P450-Glo Detection Reaction MEAN (total luminescence): 82.48 % TL
CYP2D6 [5]
  IC50: 7.02 µM

## CN1CCc2cc3c(cc2C(=O)Cc2ccc4c(c2C1)OCO4)OCO3 [Protopine]
CYP2D6 [7]
  Classification of literature CYP2D6 inhibition: active
CYP2D6 [8]; read-out: Inhibitory potency Ki
  Ki: 0.078 µM

## COc1ccc2c(c1OC)C(=O)O[C@@H]2[C@H]1c2c(cc3c(c2OC)OCO3)CCN1C [Noscapine]
CYP2D6 [7]; [9]
  Classification of literature CYP2D6 inhibition: inactive
CYP2D6 [8]
  Inhibitory potency (IC50/Ki not specified): > 100 µM

## C=C[C@H]1CN2CC[C@H]1C[C@H]2[C@H](O)c1ccnc2ccccc12 [Cinchonidine]
CYP2D6 [7]; [9]
  Classification of literature CYP2D6 inhibition: active
CYP2D6 [8]
  IC50: 10 µM

## COc1cc2c(cc1OC)[C@@H]1Cc3ccc(OC)c(OC)c3CN1CC2 [Tetrahydropalmatine]
CYP2D6 [7]; [9]
  Classification of literature CYP2D6 inhibition: active
CYP2D6 [8]
  IC50: 3.04 ± 0.26 µM

— article PMC5556109, “A combinatorial approach for the discovery of cytochrome P450 2D6 inhibitors from nature” (Scientific Reports, 2017)
